Source: ChEMBL document CHEMBL1201862, “PubChem BioAssay data set” (2004)
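Results reflect a 48-hour exposure of cells in 96-well plates to compound at five concentrations. Abbreviation: GI50, concentration required for 50% inhibition of growth.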 Calls of active or inactive are those of the source. Cut-off read from the data, not from the text of the source: active = GI50 up to about 1.1 µM and inactive = higher.

How the values were obtained:
Test in all cases: NCI tumour cell line growth inhibition, 48 h
[1] = system: 786-0
[2] = system: A549
[3] = system: ACHN
[4] = system: COLO 205
[5] = system: EKVX
[6] = system: IGROV-1
[7] = system: K562
[8] = system: KM12
[9] = system: MDA-N
[10] = system: NCI-H226
[11] = system: NCI/ADR-RES
[12] = system: OVCAR-4
[13] = system: PC-3
[14] = system: SK-MEL-28
[15] = system: SK-MEL-5
[16] = system: SN12C
[17] = system: SNB-75
[18] = system: SR
[19] = system: TK-10
[20] = system: UO-31

Cc1ccc2[nH]c(=O)c(-c3cnc(O)nn3)c(O)c2c1
GI50 [1]: > 100 µM (inactive) | GI50 [2]: 32 µM (inactive) | GI50 [3]: 19.7 µM (inactive) | GI50 [4]: > 100 µM (inactive) | GI50 [5]: 3.4 µM (inactive) | GI50 [6]: > 100 µM (inactive) | GI50 [7]: 1.8 µM (inactive) | GI50 [8]: > 100 µM (inactive) | GI50 [9]: 17.7 µM (inactive) | GI50 [10]: > 100 µM (inactive) | GI50 [11]: > 100 µM (inactive) | GI50 [12]: 17.8 µM (inactive) | GI50 [13]: 15.6 µM (inactive) | GI50 [14]: > 100 µM (inactive) | GI50 [15]: 11.8 µM (inactive) | GI50 [16]: > 100 µM (inactive) | GI50 [17]: > 100 µM (inactive) | GI50 [18]: > 100 µM (inactive) | GI50 [19]: > 100 µM (inactive) | GI50 [20]: 16.6 µM (inactive)

COC(=O)[C@H](C)N1C(=O)N[C@@H](C(C)C)C1=O
GI50 [1]: > 100 µM (inactive) | GI50 [2]: > 100 µM (inactive) | GI50 [3]: > 100 µM (inactive) | GI50 [4]: > 100 µM (inactive) | GI50 [5]: > 100 µM (inactive) | GI50 [6]: > 100 µM (inactive) | GI50 [7]: > 100 µM (inactive) | GI50 [8]: > 100 µM (inactive) | GI50 [9]: > 100 µM (inactive) | GI50 [10]: > 100 µM (inactive) | GI50 [11]: > 100 µM (inactive) | GI50 [12]: > 100 µM (inactive) | GI50 [13]: > 100 µM (inactive) | GI50 [14]: > 100 µM (inactive) | GI50 [15]: > 100 µM (inactive) | GI50 [16]: > 100 µM (inactive) | GI50 [17]: 82 µM (inactive) | GI50 [18]: > 100 µM (inactive) | GI50 [19]: > 100 µM (inactive) | GI50 [20]: > 100 µM (inactive)

CCC(=O)OCc1ccc2oc(=O)c(C(=O)Oc3cncc(Cl)c3)cc2c1
GI50 [1]: 74.1 µM (inactive) | GI50 [2]: > 100 µM (inactive) | GI50 [3]: > 100 µM (inactive) | GI50 [4]: 71.6 µM (inactive) | GI50 [5]: > 100 µM (inactive) | GI50 [6]: > 100 µM (inactive) | GI50 [7]: 20.6 µM (inactive) | GI50 [8]: > 100 µM (inactive) | GI50 [9]: > 100 µM (inactive) | GI50 [10]: > 100 µM (inactive) | GI50 [11]: > 100 µM (inactive) | GI50 [12]: > 100 µM (inactive) | GI50 [13]: 46 µM (inactive) | GI50 [14]: > 100 µM (inactive) | GI50 [15]: > 100 µM (inactive) | GI50 [16]: 42.7 µM (inactive) | GI50 [17]: 79.8 µM (inactive) | GI50 [18]: 20.8 µM (inactive) | GI50 [19]: 97.5 µM (inactive) | GI50 [20]: 83.8 µM (inactive)

Cc1ccc2c(c1C)C(=O)/C(=C/c1cccc(C)c1C(=O)O)C2
GI50 [1]: > 100 µM (inactive) | GI50 [2]: 79.6 µM (inactive) | GI50 [3]: 72.3 µM (inactive) | GI50 [4]: > 100 µM (inactive) | GI50 [5]: > 100 µM (inactive) | GI50 [6]: > 86.7 µM (inactive) | GI50 [7]: 72.8 µM (inactive) | GI50 [8]: 47.6 µM (inactive) | GI50 [9]: > 80.5 µM (inactive) | GI50 [10]: 43.1 µM (inactive) | GI50 [11]: 59.8 µM (inactive) | GI50 [12]: > 79.6 µM (inactive) | GI50 [13]: 57.5 µM (inactive) | GI50 [14]: 79.3 µM (inactive) | GI50 [15]: 38.9 µM (inactive) | GI50 [16]: > 71.4 µM (inactive) | GI50 [17]: 69.3 µM (inactive) | GI50 [18]: > 60.5 µM (inactive) | GI50 [19]: > 100 µM (inactive) | GI50 [20]: 2.2 µM (inactive)

NC(CP(=O)(O)O)C(=O)O (stereo not given)
GI50 [1]: > 100 µM (inactive) | GI50 [2]: > 100 µM (inactive) | GI50 [3]: > 100 µM (inactive) | GI50 [4]: > 100 µM (inactive) | GI50 [5]: > 100 µM (inactive) | GI50 [6]: > 100 µM (inactive) | GI50 [7]: > 100 µM (inactive) | GI50 [8]: > 100 µM (inactive) | GI50 [9]: > 100 µM (inactive) | GI50 [10]: > 100 µM (inactive) | GI50 [11]: > 100 µM (inactive) | GI50 [12]: > 100 µM (inactive) | GI50 [13]: > 100 µM (inactive) | GI50 [14]: > 100 µM (inactive) | GI50 [15]: > 100 µM (inactive) | GI50 [16]: > 100 µM (inactive) | GI50 [17]: > 100 µM (inactive) | GI50 [18]: > 100 µM (inactive) | GI50 [19]: > 100 µM (inactive) | GI50 [20]: > 100 µM (inactive)

O=C(/C=C/c1ccccc1)Oc1ccc(C(=O)/C=C/c2ccccc2)cc1
GI50 [1]: 6.53 µM (inactive) | GI50 [2]: 25.1 µM (inactive) | GI50 [3]: 11.9 µM (inactive) | GI50 [4]: 13.9 µM (inactive) | GI50 [5]: 13.3 µM (inactive) | GI50 [6]: 11.5 µM (inactive) | GI50 [7]: 3.4 µM (inactive) | GI50 [8]: 5.4 µM (inactive) | GI50 [9]: 6.3 µM (inactive) | GI50 [10]: 34.4 µM (inactive) | GI50 [11]: 12.1 µM (inactive) | GI50 [12]: 25.8 µM (inactive) | GI50 [13]: 9.31 µM (inactive) | GI50 [14]: 12.4 µM (inactive) | GI50 [15]: 16.9 µM (inactive) | GI50 [16]: 10.3 µM (inactive) | GI50 [17]: 12.5 µM (inactive) | GI50 [18]: 2.1 µM (inactive) | GI50 [19]: 14.5 µM (inactive) | GI50 [20]: 10.4 µM (inactive)

CN(C)CCc1c2c(nc3ccccc13)C(=O)c1cccnc1C2=O
GI50 [1]: 0.121 µM (active) | GI50 [2]: 1.24 µM (inactive) | GI50 [3]: 0.084 µM (active) | GI50 [4]: 1.97 µM (inactive) | GI50 [5]: 1.55 µM (inactive) | GI50 [6]: 0.542 µM (active) | GI50 [7]: 0.154 µM (active) | GI50 [8]: 0.173 µM (active) | GI50 [9]: 0.352 µM (active) | GI50 [10]: 0.0902 µM (active) | GI50 [11]: 0.119 µM (active) | GI50 [12]: 0.31 µM (active) | GI50 [13]: 0.313 µM (active) | GI50 [14]: 0.492 µM (active) | GI50 [15]: 0.177 µM (active) | GI50 [16]: 0.277 µM (active) | GI50 [17]: 0.42 µM (active) | GI50 [18]: 0.0456 µM (active) | GI50 [19]: 1.3 µM (inactive) | GI50 [20]: 0.197 µM (active)

CN1C[C@@H]2CCCN2P1Oc1cccc2cccnc12 (stereo not given in full)
GI50 [1]: > 100 µM (inactive) | GI50 [2]: 44.5 µM (inactive) | GI50 [3]: 49 µM (inactive) | GI50 [4]: 30.5 µM (inactive) | GI50 [5]: 29 µM (inactive) | GI50 [6]: 32.9 µM (inactive) | GI50 [7]: 9.42 µM (inactive) | GI50 [8]: 40.2 µM (inactive) | GI50 [9]: 55.2 µM (inactive) | GI50 [10]: 80.9 µM (inactive) | GI50 [11]: 19.8 µM (inactive) | GI50 [12]: 32.8 µM (inactive) | GI50 [13]: 27.5 µM (inactive) | GI50 [14]: 73.1 µM (inactive) | GI50 [15]: 41.5 µM (inactive) | GI50 [16]: 22.9 µM (inactive) | GI50 [17]: > 100 µM (inactive) | GI50 [18]: 25.7 µM (inactive) | GI50 [19]: 75.7 µM (inactive) | GI50 [20]: 34.9 µM (inactive)
